Reference: patent US9545412B2, “Composition and methods used during anti-HIV treatment” (UNIVERSITE D'AIX-MARSEILLE, priority 2008, dated 2017)

Legend:
[1] = test system: cells of progeria patients; test: Quantitative analysis of nuclear morphology of cells of progeria patients; assay type: cell-based, human; settings: added to pravastatin+zoledronate, abnormal nuclei measured 48 h after beginning of treatment
Source text: The dermal fibroblasts of a control subject (GM00038) and of patients afflicted with progeria and carriers of the mutation G608G (AG11498 and AG01972) were obtained from the Coriell Cell Repository. The HeLa cells come from the American Type Culture Collection. The cells are cultivated in DMEM (Gibco) supplemented with 10% FBS (Gibco) and 1% antibiotic-antimycotic (Gibco). The fibroblasts come from tails of 12-day-old mice (Varela and al., 2005). The concentration and the duration of treatment with the statin and the aminobiphosphonate are indicated in the legende of the figures. […] The percentage of abnormal nuclei is measured 48 h after the beginning of the treatment. […]
The dilution of the primary antibodies is 1/100 for the goat polyclonal anti-prelamin A antibody (Sc-6214, Santa Cruz Biotechnologies), 1/40 for the anti-lamin A/C antibody (4A7 provided by G. Morris), 1/200 for the Rabbit anti-calreticulin antibody (Stressgen) and 1/100 for the B1 anti-lamin antibody (Abcam). […] Digital images are recorded with a Leica DMR microscope equipped with a CoolSnap camera or with a Leica TCS SP5 confocal microscope. […] More than 100 nuclei were analysed in the control fibroblasts for each of the treatments. The number of nuclei of cells of patients afflicted with progeria analysed is 250 (passage 8), 198 (passage 13) and 150 (passage 20). […]

Zmpste24^−/− mouse cells = test: Nuclear morphology of Zmpste24^−/− mouse cells in culture; assay type: cell-based; settings: pravastatin (1 μM) and zoledronate (1 μM), alone or in combination
Source text: (§1) The dermal fibroblasts of a control subject (GM00038) and of patients afflicted with progeria and carriers of the mutation G608G (AG11498 and AG01972) were obtained from the Coriell Cell Repository. The HeLa cells come from the American Type Culture Collection. The cells are cultivated in DMEM (Gibco) supplemented with 10% FBS (Gibco) and 1% antibiotic-antimycotic (Gibco). The fibroblasts come from tails of 12-day-old mice (Varela and al., 2005). The concentration and the duration of treatment with the statin and the aminobiphosphonate are indicated in the legende of the figures. During the combined statin+aminobiphosphonate treatment in the presence of farnesol and/or of geranylgeraniol, […] were added to the culture medium with increasing concentrations of farnesol and/or of geranylgeraniol. The percentage of abnormal nuclei is measured 48 h after the beginning of the treatment.
(§2) Quantification of the effect of pravastatin (1 μM) and zoledronate (1 μM), alone or in combination, on the nuclear morphology of Zmpste24^−/− mouse cells (a) and control mouse cells (b) in culture, in the presence of farnesol, geranylgeraniol or both molecules.

control fibroblasts = test: Nuclear morphology of control mouse cells in culture; assay type: cell-based
Source text: as §1, §2

prelamin A [2] = test: Immunohistochemistry: prelamin A level in healthy cells; assay type: cell-based, human; settings: Pravastatin 100 μM for 12 hours, Zoledronate 20 μM for 6 hours; in association or alone
Protocol: (§3) A cell culture is trypsinized, and the cells are counted on a Neubauer cytometer.
(§4) Labtech culture wells (Nunc, ref. 177399) are seeded in an amount of 5×10^4 cells per well.
(§5) The complete culture medium is supplemented by the treatment(s) (statin, NBP, both), and the cells are cultivated for the ad hoc time.
(§6) The cells are fixed in a paraformaldehyde 4% solution (in PBS) for 10 minutes at room temperature.
(§7) […], the cells are incubated for 5 minutes at room temperature in a humidity chamber in 50 μl of permeabilization solution:
(§8) The primary antibody is diluted to 1/100 in 50 μl of incubation solution and placed in contact with the cells for 1 hour at room temperature in a humidity chamber.
(§9) The primary antibodies used are of two types: • Mouse anti-lamin A/C (N-terminal side), clone 4A7, donated by G. Morris (Oswestry, UK) • Goat anti-prelamin A (C-terminal end 15 aa), product SC6214, Santa Cruz Biotchnology, Inc.
(§10) The incubation with the secondary antibody takes place for 1 hour in […] of incubation solution at room temperature in a humidity chamber. […]
(§11) The cells are immersed in one drop of VectaShield (Vector), covered with an object-cover slide and observed under a fluorescence microscope (Leica DMR, Leica Microsystems), equipped with a coolSNAP camera (Princeton). […]

Zmpste24^−/− mice = test: Progeroid phenotype and lifespan of Zmpste24^−/− mice (Example 7); assay type: in vivo, mouse; settings: daily treatment with one drug alone
Protocol: All of the experiments on mice are governed by the rules set down by the Animal Experiment Committee of the University of Oviedo (Spain). The pravastatin (100 mg/kg/day) and the zoledronate (100 mg/kg/day) diluted in PBS are administered to the mice every day.

progerin = test: Mass spectrometry (MALDI-ToF) of nuclear envelope proteins, cells of progeria patients; assay type: cell-based, human; settings: FTI 2.5 μM
Source text: (§12) The fibroblasts of control and Zmpste24^−/− mice as well as the cells lymphoblastoids of progeria patients have been homogenised, the nuclei isolated via ultracentrifugation and the nuclear proteins obtained as described in Blobel and Potter, V. R. Nuclei from rat liver: isolation method that combines purity with high yield, Science 154, 1662-1665, 1966. The proteins of the nuclear lamina were separated via SDS-PAGE electrophoresis, and the strips containing the lamin A, the prelamin A and the progerin were excised. The fragments of the gel were washed twice with […] of a ammonium bicarbonate/acetonitrile mixture (70/30, 25 mM), dried (15 min, 90° C.) and digested (1 h, 60° C.) with trypsin (12 ng/ml, Promega) in the ammonium bicarbonate 25 mM. […] The data collected using 200 laser firings produce spectra analysed with the Data Explorer programme (version 4.0.0.0, Applied Biosystems).
FIG. 11 legend: mass spectrometry analysis of the proteins extracted from the nuclear envelop of the untreated cells (a), of the cells of the progeria patients treated with FTI (2.5 μM, b) or treated with the mixture of pravastatin+zoledronate (1 μM apiece, c). […] Each peak corresponds to the tryptic peptide of the progerin and is marked with the measured monoisotopic mass in experiment and with the theoretical mass (between parentheses). […]

prelamin A [3] = test: Mass spectrometry (MALDI-ToF) of nuclear envelope proteins, Zmpste24^−/− mouse fibroblasts; assay type: cell-based; settings: FTI-treated Zmpste24^−/− mouse cells
Source text: as §12
FIG. 12 legend: a mass spectrometry analysis of the proteins extracted from the nuclear envelop of the untreated fibroblasts (a) or treated with a mixture of pravastatin+zoledronate (1 μM apiece, b) stemming from Zmpste24^−/− mice. […] Each peak corresponds to a tryptic peptide of the progerin and is marked with a monoisotopic mass measured the experiment and with the theoritical mass (in parentheses). […]

healthy cells = test: Immunohistochemistry: toxicity / deformed nuclei on healthy cells; assay type: cell-based, human; settings: Pravastatin 100 μM for 12 hours, Zoledronate 20 μM for 6 hours; in association or alone
Protocol: as §3, §4, §5, §6, §7, §8, §9, §10, §11

CC(C)=CCCC(C)=CCCC(C)=CCO [farnesol]
effect on the nuclear morphology improvement given by the pravastatin+zoledronate treatment [1]: nullifies the effect of the pravastatin+zoledronate treatment | effect on the nuclear morphology improvement given by the pravastatin+zoledronate treatment (Zmpste24^−/− mouse cells): nullify the effect of the pravastatin+zoledronate treatment | effect on nuclear morphology of control fibroblasts (control fibroblasts): Neither farnesol nor geranylgeraniol have any effect

O=P(O)(O)C(O)(Cn1ccnc1)P(=O)(O)O [zoledronate, (1-hydroxy-2-imidazol-1-yl-1-phosphono-ethyl) phosphonic acid]
prelamin A level produced in healthy cells (prelamin A [2]): 15% | lifespan of Zmpste24^−/− mice, drug in isolation (Zmpste24^−/− mice): neither of the drugs in isolation, pravastatin or zoledronate, increases the lifespan

COC(=O)[C@H](CCSC)NC(=O)c1ccc(NC[C@@H](N)CS)cc1-c1ccccc1 [FTI-277]
farnesylated and carboxymethylated progerin peak (progerin): considerable reduced | geranylgeranylated progerin peptides (progerin): appears geranylgeranylated and phosphoryl | geranyl-geranylated prelamin A peptide (prelamin A [3]): detected a peptide which mass is compatible with a geranyl-geranylated fragment of the prelamine A | quantity of farnesylated prelamin A (prelamin A [3]): reduction in the quantity of farnesyled prelamine A

CC[C@H](C)C(=O)O[C@H]1C[C@H](O)C=C2C=C[C@H](C)[C@H](CC[C@@H](O)C[C@@H](O)CC(=O)O)[C@H]21 [pravastatin]
prelamin A level produced in healthy cells (prelamin A [2]): 25% | rate of deformed nuclei (sign of toxicity on healthy cells) (healthy cells): around 12%

CC(C)=CCC/C(C)=C/CC/C(C)=C/CC/C(C)=C/CO [geranylgeraniol]
effect on the nuclear morphology improvement given by the pravastatin+zoledronate treatment [1]: blocks the effect of the treatment | effect on the nuclear morphology improvement given by the pravastatin+zoledronate treatment (Zmpste24^−/− mouse cells): nullify the effect of the pravastatin+zoledronate treatment | effect on nuclear morphology of control fibroblasts (control fibroblasts): Neither farnesol nor geranylgeraniol have any effect
